Source: BindingDB's records for doi:10.7270/Q25T3HZB (Burnham Center For Chemical Genomics, 2010)

Biological target: Kappa-type opioid receptor (Homo sapiens, UniProt P41145)
Assay: kappa opioid receptor blockers, image-based, SAR follow-up (AID 2348)

Chain of Kappa-type opioid receptor (P41145 whole entry): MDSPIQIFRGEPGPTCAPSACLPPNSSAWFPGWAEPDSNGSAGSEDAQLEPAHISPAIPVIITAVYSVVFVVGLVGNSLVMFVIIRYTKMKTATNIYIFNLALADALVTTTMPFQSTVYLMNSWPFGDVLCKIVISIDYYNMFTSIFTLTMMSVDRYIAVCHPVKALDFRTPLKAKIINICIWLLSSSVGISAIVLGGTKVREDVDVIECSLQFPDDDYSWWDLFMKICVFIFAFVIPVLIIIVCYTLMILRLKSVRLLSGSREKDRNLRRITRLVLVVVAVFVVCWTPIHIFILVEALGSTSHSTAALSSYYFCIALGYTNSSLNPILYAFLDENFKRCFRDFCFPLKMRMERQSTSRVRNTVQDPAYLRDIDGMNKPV

| IC50 [µM] | Structure (SMILES) |
| --- | --- |
| 24.8 | Oc1ccc(CN=Nc2ccnc3cc(Cl)ccc23)cc1O [(4Z)-4-[[2-(7-chloroquinolin-4-yl)hydrazinyl]methylidene]-2-hydroxycyclohexa-2,5-dien-1-one] |
| 3.62 | CCC(N=Nc1ccnc2cc(Cl)ccc12)c1ccc(O)cc1 (configuration not stated) [4-[1-[2-(7-chloroquinolin-4-yl)hydrazinyl]propylidene]cyclohexa-2,5-dien-1-one] |
